Assay results reported in the NIST ThermoML archive (doi:10.1021/je060271a).

Conditions: 283.15 K, Liquid, Vibrating tube method

CCCCCC(=O)OCC(COC(=O)CCCCC)(COC(=O)CCCCC)COC(=O)CCCCC [pentaerythritol tetrahexanoate]
Conditions	mass density [kg/m3]
219.9 kPa	1004.3
220.4 kPa	1004.3
221.1 kPa	1004.3
221.3 kPa	1004.1
222 kPa	1004.2
222.5 kPa	1004.3
223.2 kPa	1004.1
223.5 kPa	1004.4
224.1 kPa	1004.3
227.9 kPa	1004.2
228.4 kPa	1004.2
228.8 kPa	1004.2
229.3 kPa	1004.3
230 kPa	1004.2
230.8 kPa	1004.4
231.2 kPa	1004.2
232.1 kPa	1004.3
232.4 kPa	1004.2
233.4 kPa	1004.2
233.6 kPa	1004.3
234.8 kPa	1004.1
236 kPa	1004.3
237.6 kPa	1004.4
238.1 kPa	1004.2
238.8 kPa	1004.2
239.2 kPa	1004.3
239.9 kPa	1004.3
240.7 kPa	1004.2
241.4 kPa	1004.3
242 kPa	1004.4
242.8 kPa	1004.3
243.5 kPa	1004.3
243.9 kPa	1004.3
244.9 kPa	1004.3
245.6 kPa	1004.1
246.3 kPa	1004.3
247 kPa	1004.3
247.7 kPa	1004.3
248.6 kPa	1004.3
249.6 kPa	1004.1
249.9 kPa	1004.2
250.5 kPa	1004.3
251.5 kPa	1004.3
251.9 kPa	1004.3
252.2 kPa	1004.3
252.7 kPa	1004.2
253.4 kPa	1004.3
254.6 kPa	1004.3
255.2 kPa	1004.3
256 kPa	1004.3
256.9 kPa	1004.2
257.8 kPa	1004.4
258.6 kPa	1004.3
259.7 kPa	1004.3
260.5 kPa	1004.3
261.2 kPa	1004.3
261.9 kPa	1004.2
262.8 kPa	1004.2
263.5 kPa	1004.4
264.5 kPa	1004.2
265.2 kPa	1004.2
266.4 kPa	1004.3
267 kPa	1004.3
267.8 kPa	1004.2
269.1 kPa	1004.3
269.8 kPa	1004.3
270.8 kPa	1004.3
271.7 kPa	1004.3
272.5 kPa	1004.3
273.4 kPa	1004.3
274.4 kPa	1004.2
275.3 kPa	1004.2
276.4 kPa	1004.3
277.6 kPa	1004.4
278.1 kPa	1004.2
279.1 kPa	1004.3
280.5 kPa	1004.2
281.2 kPa	1004.2
282.6 kPa	1004.3
283.7 kPa	1004.3
284.3 kPa	1004.2
285.7 kPa	1004.3
286.8 kPa	1004.3
287.6 kPa	1004.2
288.9 kPa	1004.2
289.6 kPa	1004.4
290.8 kPa	1004.3
291.8 kPa	1004.2
292.9 kPa	1004.3
294.1 kPa	1004.4
295.1 kPa	1004.3
296.5 kPa	1004.2
297.4 kPa	1004.2
298.6 kPa	1004.1
299.8 kPa	1004.2
300.9 kPa	1004.3
301.9 kPa	1004.3
303.3 kPa	1004.4
304.3 kPa	1004.4
305.5 kPa	1004.3
306.8 kPa	1004.2
308 kPa	1004.4
309.4 kPa	1004.3
310.6 kPa	1004.3
311.5 kPa	1004.3
313 kPa	1004.3
314.1 kPa	1004.2
315.6 kPa	1004.3
317.2 kPa	1004.3
318.8 kPa	1004.2
320.5 kPa	1004.3
322.2 kPa	1004.3
324 kPa	1004.3
325.2 kPa	1004.3
326.4 kPa	1004.3
328.3 kPa	1004.2
329.5 kPa	1004.3
331.8 kPa	1004.2
333.3 kPa	1004.3
335.1 kPa	1004.4
336.8 kPa	1004.3
338.4 kPa	1004.3
340.1 kPa	1004.3
341.9 kPa	1004.3
343.1 kPa	1004.3
344.6 kPa	1004.3
346.7 kPa	1004.4
348.1 kPa	1004.4
349.2 kPa	1004.4
350.2 kPa	1004.3
351.1 kPa	1004.4
352.6 kPa	1004.4
354.7 kPa	1004.4
355.6 kPa	1004.3
357.2 kPa	1004.4
358.9 kPa	1004.3
367.6 kPa	1004.3
369.3 kPa	1004.4
371.3 kPa	1004.5
373.2 kPa	1004.2
375.4 kPa	1004.3
377.5 kPa	1004.3
379.4 kPa	1004.4
381.5 kPa	1004.4
383.6 kPa	1004.5
385.7 kPa	1004.2
387.9 kPa	1004.3
390 kPa	1004.4
391.9 kPa	1004.3
394 kPa	1004.4
396.6 kPa	1004.3
398.4 kPa	1004.4
401 kPa	1004.4
413.1 kPa	1004.4
415.2 kPa	1004.3
417.8 kPa	1004.3
420.6 kPa	1004.3
423.2 kPa	1004.4
425.6 kPa	1004.3
428.4 kPa	1004.4
430.9 kPa	1004.5
434 kPa	1004.4
436.2 kPa	1004.5
442.3 kPa	1004.4
444.9 kPa	1004.4
448.1 kPa	1004.4
450.8 kPa	1004.4
453.4 kPa	1004.4
456.8 kPa	1004.4
459.7 kPa	1004.4
462.7 kPa	1004.4
466 kPa	1004.4
469.4 kPa	1004.4
472.6 kPa	1004.4
476 kPa	1004.3
479.5 kPa	1004.3
482.8 kPa	1004.4
486 kPa	1004.4
489.8 kPa	1004.3
493.6 kPa	1004.3
496.7 kPa	1004.5
512 kPa	1004.5
515.7 kPa	1004.4
519.1 kPa	1004.5
523.7 kPa	1004.3
527.3 kPa	1004.5
531.3 kPa	1004.4
535.3 kPa	1004.4
540.3 kPa	1004.4
544 kPa	1004.4
548.5 kPa	1004.5
553 kPa	1004.5
557 kPa	1004.5
561.4 kPa	1004.4
566.4 kPa	1004.3
571.4 kPa	1004.5
576.3 kPa	1004.4
580.5 kPa	1004.5
585.3 kPa	1004.4
590.2 kPa	1004.5
595.8 kPa	1004.5
600.1 kPa	1004.5
604.8 kPa	1004.6
611.2 kPa	1004.5
616.8 kPa	1004.5
621.8 kPa	1004.6
627.7 kPa	1004.6
633.3 kPa	1004.5
638.7 kPa	1004.5
644.2 kPa	1004.5
650.7 kPa	1004.4
657.1 kPa	1004.4
676 kPa	1004.5
681.9 kPa	1004.5
688 kPa	1004.5
694.4 kPa	1004.5
700.5 kPa	1004.5
707.3 kPa	1004.7
714.2 kPa	1004.5
720.3 kPa	1004.5
728 kPa	1004.5
734.6 kPa	1004.6
742.2 kPa	1004.6
749.5 kPa	1004.6
756.6 kPa	1004.6
763.9 kPa	1004.6
771.1 kPa	1004.5
780.4 kPa	1004.7
787.7 kPa	1004.6
796.1 kPa	1004.5
803.7 kPa	1004.6
821.4 kPa	1004.6
829.9 kPa	1004.6
840 kPa	1004.6
848.9 kPa	1004.6
857.7 kPa	1004.6
866.4 kPa	1004.7
877.2 kPa	1004.7
886.2 kPa	1004.6
895.6 kPa	1004.7
905.1 kPa	1004.6
916.6 kPa	1004.8
926.7 kPa	1004.6
936.4 kPa	1004.6
948.2 kPa	1004.6
958.6 kPa	1004.7
969.1 kPa	1004.8
979.3 kPa	1004.6
989.7 kPa	1004.8
1001.9 kPa	1004.8
1012 kPa	1004.7
1024.5 kPa	1004.7
1035.1 kPa	1004.8
1045.3 kPa	1004.6
1055.6 kPa	1004.8
1066.1 kPa	1004.7
1078.8 kPa	1004.6
1089.1 kPa	1004.8
1099.8 kPa	1004.8
1113 kPa	1004.8
1123.6 kPa	1004.9
1134.7 kPa	1004.8
1147.6 kPa	1004.7
1158.7 kPa	1004.7
1170 kPa	1004.8
1183.6 kPa	1004.9
1194.7 kPa	1004.7
1206.3 kPa	1004.9
1218.1 kPa	1004.8
1229.9 kPa	1004.9
1241.6 kPa	1004.9
1258.7 kPa	1005
1270.9 kPa	1004.9
1283.6 kPa	1004.8
1298.2 kPa	1004.8
1310.3 kPa	1004.8
1322.8 kPa	1004.8
1338.1 kPa	1004.9
1351.5 kPa	1004.8
1364.1 kPa	1004.9
1377 kPa	1004.9
1393.1 kPa	1004.8
1406.3 kPa	1005
1420 kPa	1004.9
1433.4 kPa	1005
1449.5 kPa	1005
1462.7 kPa	1005
1476.5 kPa	1004.8
1492.4 kPa	1005
